These results are taken from publication PMC10962836, “Cis-regulatory polymorphism at fiz ecdysone oxidase contributes to polygenic evolutionary response to malnutrition in Drosophila” (PLOS Genetics, 2024).

The target of the test is T1, Fiz (Drosophila melanogaster, UniProt Q9VY04).
T1 construct: N-terminal RGS-6xHis tag kept; E. coli Rosetta Gami DE3, Ni-NTA; contains FAD
T1 sequence (Q9VY04 2-646): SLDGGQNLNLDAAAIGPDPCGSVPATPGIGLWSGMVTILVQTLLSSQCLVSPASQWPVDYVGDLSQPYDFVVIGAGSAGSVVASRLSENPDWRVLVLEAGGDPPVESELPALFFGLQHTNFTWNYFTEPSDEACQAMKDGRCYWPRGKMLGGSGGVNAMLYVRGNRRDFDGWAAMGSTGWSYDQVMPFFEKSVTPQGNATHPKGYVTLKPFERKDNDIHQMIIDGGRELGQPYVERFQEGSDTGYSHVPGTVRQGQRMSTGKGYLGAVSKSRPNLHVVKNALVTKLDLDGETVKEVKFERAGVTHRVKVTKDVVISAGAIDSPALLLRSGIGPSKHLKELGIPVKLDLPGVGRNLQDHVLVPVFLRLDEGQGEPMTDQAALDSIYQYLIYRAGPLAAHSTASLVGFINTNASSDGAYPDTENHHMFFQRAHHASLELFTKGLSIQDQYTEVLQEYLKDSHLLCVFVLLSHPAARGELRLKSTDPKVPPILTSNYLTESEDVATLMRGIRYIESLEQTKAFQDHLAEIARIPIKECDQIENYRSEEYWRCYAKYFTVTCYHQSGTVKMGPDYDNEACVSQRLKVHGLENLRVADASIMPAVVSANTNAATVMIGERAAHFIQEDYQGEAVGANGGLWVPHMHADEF
Briefly: FAD content of purified protein (method in supplement). The format is binding. To be noted: co-purified from E. coli, no FAD addition told.

For the molecule `Cc1cc2nc3c(=O)[nH]c(=O)nc-3n(C[C@H](O)[C@H](O)[C@H](O)COP(=O)(O)OP(=O)(O)OC[C@H]3O[C@@H](n4cnc5c(N)ncnc54)[C@H](O)[C@@H]3O)c2cc1C` [FAD], the “FAD content of purified protein (method in supplement)” value was “we confirmed that our purified Fiz contained FAD”.
